Read-outs that look alike come from different tables or passages of the source. Where a SMILES comes first, the peptide text is derived from it. Bridges are numbered along the chain shown (N, C = ends).
Columns and labels:
Escherichia coli ML-35p = details: salt-containing MHB, FBS at different concentrations up to 15%
Text: The results were expressed as the median values determined on the basis of at least three independent experiments performed in triplicate.

[1] = 25% human serum in PBS pH 7.4, 37 °C; for a/b (%), ratio of the peptide forms in serum: RP-HPLC, ratio estimated from MALDI-TOF MS, two independent experiments
[2] = system: E. coli K12 SBS 1936 biofilm; experiment: Effect on established biofilm, MTT assay; type: cell-based, Escherichia coli; details: at 2 × MIC (4 μM), 24 h pre-formed biofilm, 16 h treatment in LB, 37 °C
Procedure: Bacterial biofilms play an important role in UTIs, being responsible for their persistence. Therefore, the eradication of mature biofilms is an extremely challenging task because high concentrations or doses of antibacterial agents are required. Here, the ability of HfBRI-25 to disrupt established biofilms was evaluated as a number of viable bacteria in biofilm using the MTT assay. According to our previous data, E. coli K12 SBS 1936 was chosen as a strong biofilm-producer that can form it in different media.
E. coli K12 SBS1936 was grown in LB broth overnight at 37 °C and diluted in the same media to obtain 1 × 10^6 CFU/mL. A total of 100 μL of bacterial suspension was added to each well of the 96-well polystyrene plate and grown at 32 °C and 120 rpm for 24 h. The wells were washed twice with sterile water to remove non-adherent cells. In parallel, 100 μL of peptide or ciprofloxacin solutions, serially diluted in LB medium using a separate 96-well polystyrene plate, were added to each well with pre-formed biofilm and incubated at 37 °C and 180 rpm for 16 h. Biofilm viability was assessed by using the MTT reagent (Sigma). […] Absorbance of each well was measured at 570 nm. Bacterial survival was calculated as a percentage relative to samples without antimicrobial agent. […]

RP-HPLC retention time = type: physicochemical; details: semi-preparative RP-HPLC, C18 column, linear gradient 5 to 80% (v/v) acetonitrile in water with 0.1% TFA within 50 min
Procedure: Figure 2 Structure analysis of the novel BRICHOS-related peptides HfBRI-25 and HfBRI-28. (A) Characteristics of the obtained peptides. ^1 Mean Kyte–Doolittle hydrophobicity index (GRAVY) was calculated using the Expasy ProtParam tool. The maximum and minimum values of this index are +4.5 and −4.5 for poly-Ile and poly-Arg sequences, respectively. ^2 Percentage of hydrophobic amino acids was calculated using the APD3 database. ^3 Retention times were measured using semi-preparative reversed-phase high-performance liquid chromatography (RP-HPLC) on a C18 column with a linear gradient from 5 to 80% (v/v) acetonitrile in water containing 0.1% trifluoroacetic acid (TFA) within 50 min. ^4 Molecular masses were calculated by considering the presence of four Cys residues forming two disulfide bonds in the case of HfBRI-25. ^5 Molecular masses were determined experimentally using MALDI-TOF mass spectrometry. (B) Spatial structures of HfBRI-25 and HfBRI-28 were modeled using the AlphaFold algorithm (ColabFold server). The top-rated models, according to predicted local distance difference test (pLDDT) scores, were visualized by the PyMOL software. (C) The CD-spectra of the peptides in water or in the presence of 30 mM DPC micelles. (D) The CONTINLL program was used for CD data analysis. […]

E. coli ATCC 25922 = details: BALB/c mice, n = 5, i.p. infection 10^6 CFU with 2.5% mucin; 10 mg/kg i.p. at 1 h and 4 h after infection; 7 days

## CC[C@H](C)[C@@H]1NC(=O)[C@H](Cc2c[nH]c3ccccc23)NC(=O)[C@H](C(C)C)NC(=O)[C@@H]2CSSC[C@H](NC(=O)[C@H](CCCNC(=N)N)NC(=O)[C@H](CCCNC(=N)N)NC(=O)[C@H](C(C)C)NC(=O)[C@H](CCCNC(=N)N)NC(=O)[C@H](CCCNC(=N)N)NC(=O)CNC(=O)[C@H](CC(N)=O)NC(=O)[C@H](C(C)C)NC(=O)[C@H](CO)NC1=O)C(=O)N[C@@H](Cc1c[nH]c3ccccc13)C(=O)NCC(=O)N[C@@H](CO)C(=O)NCC(=O)N[C@H](C(=O)O)CSSC[C@H](NC(=O)CNC(=O)[C@H](CCCNC(=N)N)NC(=O)[C@@H]1CCCN1C(=O)[C@@H](N)CO)C(=O)N[C@@H](Cc1ccccc1)C(=O)N2 [HfBRI-25] (H-SPRGCFCVWISVNGRRVRRCWGSGC-OH; disulfide 5-25, 7-20; N-terminus and C-terminus assumed)
Escherichia coli ML-35p
  MIC in the presence of FBS at different concentrations: 1 µM
[1]; after 1 h of incubation
  Part of the peptide converted into 23-residue form b: More than half
[1]; after 24 h, RP-HPLC peak area, mean of two independent experiments
  Two active forms (a/b) remained intact in serum: more than 80%
[1]; time 1 h
  a/b (%), ratio of the peptide forms in serum: 39%
[1]; time 3 h
  a/b (%), ratio of the peptide forms in serum: 6%
[1]; time 24 h
  a/b (%), ratio of the peptide forms in serum: 0%
[2]
  Bacterial viability inside established biofilm: minimal residual bacterial viability
RP-HPLC retention time
  RP-HPLC Retention Time: 27.5 min
E. coli ATCC 25922
  Survival / therapeutic efficacy: 100%
